Test results published in the supplement of paper PMC10307832.

How the values were obtained:
Experiment in all cases: relative viability (nuclei count vs DMSO), 5 days (fraction); higher = more cells survive
[1] = compound: C1/C(=C\C2=CC=CS2)/C(=O)/C(=C/C3=CC=CS3)/C1 + Cc1nc(NC(=O)N2CCC[C@H]2C(N)=O)sc1-c1ccnc(C(C)(C)C(F)(F)F)c1 [Alpelisib] (partner 2 µM)
Summary of the method: (§1)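 Lung cancer cell lines in 1536-well plates got either a single drug or a fixed anchor-drug dose together with five library-drug doses (not always all listed) in √10 steps, by pin tool, on the day after seeding. Nuclei were counted after 5 days, and relative viability is the treated-to-vehicle ratio of nuclei counts. Values are medians of duplicate plates.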

[2] = compound: C1=CC(=CC=C1C2=CC(=C(S2)NC(=O)N)C(=O)N)F [TPCA-1] + CC(=O)Nc1cccc(-n2c(=O)n(C3CC3)c(=O)c3c(Nc4ccc(I)cc4F)n(C)c(=O)c(C)c32)c1 [Trametinib] (partner 0.02 µM)
Summary of the method: as §1

[3] = compound: C1=CC(=CC=C1C2=CC(=C(S2)NC(=O)N)C(=O)N)F [TPCA-1] + O=C(CCCCCCC(=O)Nc1ccccc1)NO [Vorinostat] (partner 1 µM)
Summary of the method: as §1

[4] = compound: C[C@]12O[C@H](C[C@]1(O)CO)n1c3ccccc3c3c4c(c5c6ccccc6n2c5c31)CNC4=O [Lestaurtinib] + Cc1nc(Nc2ncc(C(=O)Nc3c(C)cccc3Cl)s2)cc(N2CCN(CCO)CC2)n1 [Dasatinib] (partner 0.075 µM)
Summary of the method: as §1

Cell Line	relative viability ([1]; first compound 0.2 µM)	relative viability ([1]; first compound 0.6325 µM)	relative viability ([1]; first compound 2 µM)	relative viability ([1]; first compound 6.325 µM)	relative viability ([1]; first compound 20 µM)	relative viability ([2]; first compound 0.04 µM)	relative viability ([2]; first compound 0.1265 µM)	relative viability ([2]; first compound 0.4 µM)	relative viability ([2]; first compound 1.265 µM)	relative viability ([2]; first compound 4 µM)	relative viability ([3]; first compound 0.04 µM)	relative viability ([3]; first compound 0.1265 µM)	relative viability ([3]; first compound 0.4 µM)	relative viability ([3]; first compound 1.265 µM)	relative viability ([3]; first compound 4 µM)	relative viability ([4]; first compound 0.005 µM)	relative viability ([4]; first compound 0.01581 µM)	relative viability ([4]; first compound 0.05 µM)	relative viability ([4]; first compound 0.1581 µM)	relative viability ([4]; first compound 0.5 µM)
NCI-H2347	1.1	1.07	0.963	0.952	1.15	0.26	0.316	0.276	0.266	0.252	0.8	0.551	0.803	0.527	0.516	0.278	0.15	0.319	0.252	0.253
201T	1.01	0.964	1.08	0.934	1	0.717	0.729	0.691	0.733	0.751	1.02	0.951	0.99	0.937	0.886	0.598	0.546	0.552	0.583	0.4
PC-14	0.95	0.898	0.889	0.676	0.995	0.885	0.687	0.79	0.705	0.57	0.838	0.802	0.802	0.639	0.448	0.294	0.286	0.231	0.13	0.0741
NCI-H727	0.578	0.532	0.616	0.507	0.567	0.393	0.361	0.442	0.421	0.357	1.21	0.947	1.26	1.25	1.31	0.402	0.285	0.459	0.542	0.231
COR-L23	0.772	0.829	0.818	0.722	0.686	0.715	0.512	0.713	0.547	0.33	0.502	0.424	0.484	0.292	0.153	0.539	0.699	0.296	0.455	0.121
HOP-62	1.01	0.741	1.09	0.764	0.93	0.407	0.373	0.418	0.47	0.366	0.771	0.52	0.688	0.381	0.176	0.66	0.721	0.504	0.499	0.241
NCI-H1915	1.05	1.06	1.09	0.976	1.03	0.343	0.272	0.286	0.279	0.263	0.541	0.5	0.537	0.392	0.386	0.37	0.272	0.243	0.236	0.191
BEN	1.02	0.981	0.977	0.972	1.07	1.04	0.736	1.18	1.39	1.04	0.56	0.543	0.624	0.634	0.441	0.3	0.322	0.265	0.313	0.184
NCI-H1437	0.985	0.923	0.988	0.639	0.901	0.581	0.493	0.521	0.511	0.453	0.921	0.867	0.897	0.819	0.784	0.442	0.475	0.331	0.382	0.265
EMC-BAC-2	0.743	0.75	0.694	0.655	0.696	0.869	0.811	0.979	0.742	0.906	0.461	0.447	0.615	0.413	0.203	0.291	0.2	0.255	0.25	0.19
NCI-H647	1.14	1.32	1.08	1	1.13	0.553	0.444	0.47	0.382	0.277	0.48	0.599	0.518	0.312	0.218	0.278	0.147	0.0914	0.0755	0.0624
LXF-289	1.02	1.08	1.05	0.974	1.04	0.7	0.629	0.635	0.653	0.565	0.786	0.819	0.762	0.764	0.42	0.21	0.275	0.146	0.154	0.0882
LOU-NH91	0.776	0.746	0.769	0.671	0.729	0.8	0.735	0.835	0.773	0.714	0.937	0.925	0.908	0.851	0.674	0.581	0.575	0.415	0.397	0.372
NCI-H23	0.705	0.899	0.706	0.483	0.742	0.535	0.377	0.362	0.382	0.358	0.392	0.579	0.546	0.526	0.161	0.856	0.911	0.739	0.847	0.483
NCI-H1993	0.698	0.655	0.633	0.703	0.637	0.545	0.563	0.563	0.423	0.425	0.877	0.74	0.921	0.694	0.533	0.565	0.32	0.504	0.495	0.468
HCC-827	0.903	0.924	1.02	0.935	0.98	0.545	0.545	0.527	0.596	0.421	0.987	0.764	0.89	0.841	0.671	0.428	0.323	0.256	0.318	0.246
